The record followed here is ChEMBL document CHEMBL4651402, “Screening of ~5500 FDA-approved drugs and clinical candidates for anti-SARS-CoV-2 activity” (2021).

Molecules are shown by their SMILES. pIC50: −log10 of the molar value.

In this test the test system is SARS-CoV-2. The test can be described thus: microbe, parasite or virus in culture. Conditions: Severe acute respiratory syndrome coronavirus 2, Vero C1008, 48 h; for IC50: read-out: pIC50 (converted).

In general, pIC50 refers to the IC50 on a negative log10 scale, so that one unit is a factor of ten. High values mean a low IC50, low ones a high IC50.

On to `Cc1cc(=O)oc2c(O)c(O)ccc12` [4-METHYLDAPHNETIN], for which the negative logarithm of the IC50 (pIC50) was < 4.70 and the IC50 is > 20 µM.

Regarding `COc1ccc(C(=O)Cc2c(CCN(C)C)cc3c(c2OC)OCO3)c(C(=O)O)c1OC` [NARCEINE], the pIC50 was < 4.70 and the IC50 is > 20 µM.

On to `Cc1cnc(NC(=O)Nc2cc(Br)c(C)cc2OC[C@@H]2CNCCO2)cn1` [RABUSERTIB], for which the pIC50 is < 4.70 and the IC50 is > 20 µM.

As to `CN(C)CC[C@@H](c1ccc(Cl)cc1)c1ccccn1` [DEXCHLORPHENIRAMINE], the pIC50 was < 4.70 and the IC50 was > 20 µM.

As to `C=C(NC(=O)C(=C)NC(=O)c1csc(C2=N[C@H]3c4csc(n4)[C@H]4NC(=O)c5csc(n5)[C@H]([C@@](C)(O)[C@@H](C)O)NC(=O)[C@H]5CSC(=N5)/C(=C\C)NC(=O)[C@H]([C@@H](C)O)NC(=O)c5csc(n5)[C@]3(CC2)NC(=O)[C@H](C)NC(=O)C(=C)NC(=O)[C@H](C)NC(=O)[C@H](C(C)CC)N[C@@H]2C=Cc3c([C@H](C)O)cc(nc3[C@H]2O)C(=O)O[C@@H]4C)n1)C(N)=O` (stereo partly specified), the negative logarithm of the IC50 (pIC50) is < 4.70 and the IC50 is > 20 µM.

As for `O=C[C@@H]1CCCN1C(=O)CCC(=O)NCc1ccc(Cl)cc1`, the negative logarithm of the IC50 (pIC50) is < 4.70 and the IC50 was > 20 µM.

As for `COc1ccccc1OCC(O)COC(N)=O` (stereo unspecified) [METHOCARBAMOL], the pIC50 was < 4.70 and the IC50 was > 20 µM.

Consider `CCCCCC(=O)O[C@]1(C(C)=O)CCC2C3CCC4=CC(=O)CCC4(C)C3CCC21C` (stereo partly specified), for which the negative-log IC50 (pIC50) was < 4.70 and the IC50 was > 20 µM.

Turning to `CC(=O)Nc1ccc(OC(C)=O)cc1` [DIACETAMATE], the pIC50 was < 4.70 and the IC50 was > 20 µM.

Take `COc1ccc([C@]2(C#N)CC[C@@H](C(=O)O)CC2)cc1OC1CCCC1` [CILOMILAST]: the negative-log IC50 (pIC50) is < 4.70 and the IC50 was > 20 µM.

Regarding `Cc1cccc(C)c1NC(=O)c1ccccc1C(=O)O` [FTAXILIDE], the pIC50 is < 4.70 and the IC50 is > 20 µM.

`Oc1ccc(C2CNCCc3c2cc(O)c(O)c3Cl)cc1` (stereo unspecified) [FENOLDOPAM]: the negative-log IC50 (pIC50) was < 4.70 and the IC50 was > 20 µM.

In the case of `CCCC(=O)O[C@]1(C(=O)CCl)C(C)CC2C3CCC4=CC(=O)C=CC4(C)[C@@]3(F)C(=O)CC21C` (stereo partly specified), the negative-log IC50 (pIC50) was < 4.70 and the IC50 is > 20 µM.

With `CCC1(c2cccc(O)c2)CCCCN(C)C1` (stereo unspecified) [MEPTAZINOL], the negative logarithm of the IC50 (pIC50) is < 4.70 and the IC50 was > 20 µM.

For the molecule `CCCNC(=O)NS(=O)(=O)c1ccc(Cl)cc1` [CHLORPROPAMIDE], the pIC50 is < 4.70 and the IC50 was > 20 µM.

For `CC(=O)N[C@H]1C[C@H]2CC[C@@H](C1)N2Cc1ccc(Oc2nc3ncccc3s2)cc1`, the negative logarithm of the IC50 (pIC50) is < 4.70 and the IC50 was > 20 µM.

Consider `C=C(C)[C@@H]1[C@@H]2OC(=O)[C@H]1[C@]1(O)C[C@H]3O[C@]34C(=O)O[C@H]2[C@]14C.CC(C)(O)[C@@H]1[C@@H]2OC(=O)[C@H]1[C@]1(O)C[C@H]3O[C@]34C(=O)O[C@H]2[C@]14C`, for which the negative logarithm of the IC50 (pIC50) was < 4.70 and the IC50 is > 20 µM.

For `C=CC[C@]1(O)CC[C@H]2[C@@H]3CCC4=CC(=O)CCC4=C3C=C[C@@]21C` [ALTRENOGEST], the pIC50 was < 4.70 and the IC50 is > 20 µM.

Turning to `CC1(C)SC2C(/N=C/N3CCCCCC3)C(=O)N2C1C(=O)O` (stereo unspecified), the negative-log IC50 (pIC50) is < 4.70 and the IC50 was > 20 µM.

For the molecule `NC(=O)CN1CCCC1=O`, the negative-log IC50 (pIC50) was < 4.70 and the IC50 was > 20 µM.

Take `CCCCCCOc1nsnc1C1=CCCN(C)C1` [XANOMELINE]: the pIC50 was < 4.70 and the IC50 is > 20 µM.

Take `CC1NCCc2cc(O)c(O)cc21` (stereo unspecified): the negative logarithm of the IC50 (pIC50) is < 4.70 and the IC50 was > 20 µM.

With `CCN(CC)CCNC(=O)c1ccc(NC(C)=O)cc1` [ACECAINIDE], the negative logarithm of the IC50 (pIC50) is < 4.70 and the IC50 was > 20 µM.
